Starred links: 1 amine or outer side, 2 acyl side, 3 side chain; linkers in the order of their positions; H or OH if unused. Positions of bridges follow the written chain, without caps; N, C: chain ends. Non-standard residues stand in square brackets, D forms with d. Residues, ends and D or L forms follow the SMILES beside them. X30 = O=C([C@H](CCNC[C@H](O)[C@@H](O)[C@H](O[C@H]1O[C@H](CO)[C@@H](O)[C@H](O)[C@H]1O)[C@H](O)CO)N[*:1])[*:2]; X27 = O=C([C@H](CNC[C@H](O)[C@@H](O)[C@H](O[C@@H]1O[C@H](CO)[C@H](O)[C@H](O)[C@H]1O)[C@H](O)CO)N[*:1])[*:2]; X29 = O=C([C@H](CNC[C@H](O)[C@@H](O)[C@H](O[C@H]1O[C@H](CO)[C@@H](O)[C@H](O)[C@H]1O)[C@H](O)CO)N[*:1])[*:2]; X58 = O=C([C@H](CNC[C@H](O)[C@@H](O)[C@H](O)[C@H](O)CO)N[*:1])[*:2]; X68 = O=C([C@H](CCNC[C@@H](O)[C@H](O)[C@H](O)CO)N[*:1])[*:2]; X6 = O=C([C@H](CCNC[C@H](O)[C@@H](O)[C@H](O)CO)N[*:1])[*:2]; X67 = O=C([C@H](CNC[C@@H](O)[C@H](O)[C@H](O)CO)N[*:1])[*:2]; X5 = O=C([C@H](CNC[C@H](O)[C@@H](O)[C@H](O)CO)N[*:1])[*:2]; Trp(1-CH2COOH) = N[C@@H](Cc1cn(CC(=O)O)c2ccccc12)C(=O)O; Hyp = O=C(O)[C@@H]1C[C@@H](O)CN1; NMeNle = CCCC[C@H](NC)C(=O)O; NMeA = CN[C@@H](C)C(=O)O; Dab = NCC[C@H](N)C(=O)O

T1 sequence (Q9NZQ7 18-239): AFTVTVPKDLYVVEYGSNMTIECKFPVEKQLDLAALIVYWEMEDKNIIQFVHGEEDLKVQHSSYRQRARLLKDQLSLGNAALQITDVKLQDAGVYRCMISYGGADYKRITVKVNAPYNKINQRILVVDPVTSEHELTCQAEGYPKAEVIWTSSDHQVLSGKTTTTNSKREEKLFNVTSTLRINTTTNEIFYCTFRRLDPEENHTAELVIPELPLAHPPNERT

This test has as its target T1, PD-1/PD-L1 (Homo sapiens, UniProt Q9NZQ7).
T1 construct: TVMV protease site (linker) (C); made in house; host or cells: HEK293T cells
Nature of the test: PD-1/PD-L1 Homogenous Time-Resolved Fluorescence (HTRF) binding assay. The conditions noted are these: PD-L1-His 10 nM, PD-1-Ig 20 nM. From the text: The ability of the compounds of formula (I) to bind to PD-L1 was investigated using a PD-1/PD-L1 Homogenous Time-Resolved Fluorescence (HTRF) binding assay.
The interaction of PD-1 and PD-L1 can be assessed using soluble, purified preparations of the extracellular domains of the two proteins. The PD-1 and PD-L1 protein extracellular domains were expressed as fusion proteins with detection tags, for PD-1, the tag was the Fc portion of Immunoglobulin (PD-1-Ig) and for PD-L1 it was the 6 histidine motif (PD-L1-His). All binding studies were performed in an HTRF assay buffer consisting of dPBS supplemented with 0.1% […] bovine serum albumin and 0.05% (v/v) Tween-20. For the h/PD-L1-His binding assay, inhibitors were pre-incubated with PD-L1-His (10 nM final) for 15 m in 4 µl of assay buffer, followed by addition of PD-1-Ig (20 nM final) in 1 µl of assay buffer and further incubation for 15 m. HTRF detection was achieved using europium crypate-labeled anti-Ig (1 nM final) and allophycocyanin (APC) labeled anti-His (20 nM final). Antibodies were diluted in HTRF detection buffer and 5 µl was dispensed on top of the binding reaction. The reaction mixture was allowed to equilibrate for 30 minutes and the resulting signal (665 nm/620 nm ratio) was obtained using an EnVision fluorometer. Additional binding assays were established between the human proteins PD-1-Ig/PD-L2-His (20 & 5 nM, respectively) and CD80-His/PD-L1-Ig (100 & 10 nM, respectively).
Recombinant Proteins: Human PD-1 (25-167) with a C-terminal human Fc domain of immunoglobulin G (Ig) epitope tag [hPD-1 (25-167)-3S-IG] and human PD-L1 (18-239) with a C-terminal His epitope tag [hPD-L1(18-239)-TVMV-His] were expressed in HEK293T cells and purified sequentially by ProteinA affinity chromatography and size exclusion chromatography. Human PD-L2-His and CD80-His was obtained through commercial sources.
Table 1 lists the IC50 values for representative examples of this disclosure measured in the PD-1/PD-L1 Homogenous Time-Resolved Fluorescence (HTRF) binding assay.
Background: In TR-FRET formats the signal depends on donor and acceptor labels being close together.
Compound `CCCC[C@H]1C(=O)N(C)[C@@H](CCCC)C(=O)N[C@@H](CC(C)C)C(=O)N[C@H](C(=O)NCC(N)=O)CSCC(=O)N[C@@H](Cc2ccc(O)cc2)C(=O)N(C)[C@@H](C)C(=O)N[C@@H](CC(N)=O)C(=O)N2CCC[C@H]2C(=O)N[C@@H](CNC[C@H](O)[C@@H](O)[C@H](O[C@H]2O[C@H](CO)[C@@H](O)[C@H](O)[C@H]2O)[C@H](O)CO)C(=O)N[C@@H](CC(C)C)C(=O)N2C[C@H](O)C[C@H]2C(=O)N[C@@H](Cc2c[nH]c3ccccc23)C(=O)N[C@@H](CCNC[C@H](O)[C@@H](O)[C@H](O[C@H]2O[C@H](CO)[C@@H](O)[C@H](O)[C@H]2O)[C@H](O)CO)C(=O)N[C@@H](Cc2cn(CC(=O)O)c3ccccc23)C(=O)N1C` [Example 2010] ({CH2CO}-Y[NMeA]NP[X29]L[Hyp]W[X30][Trp(1-CH2COOH)][NMeNle][NMeNle]LCG-NH2; thioether N-14) came in with a half-maximal inhibitory concentration (IC50) of 2.1 nM.
Next, `CCCC[C@H]1C(=O)N(C)[C@@H](CCCC)C(=O)N[C@@H](CC(C)C)C(=O)N[C@H](C(=O)NCC(N)=O)CSCC(=O)N[C@@H](Cc2ccc(O)cc2)C(=O)N(C)[C@@H](C)C(=O)N[C@@H](CC(N)=O)C(=O)N2CCC[C@H]2C(=O)N[C@@H](CNC[C@H](O)[C@@H](O)[C@H](O[C@H]2O[C@H](CO)[C@@H](O)[C@H](O)[C@H]2O)[C@H](O)CO)C(=O)N[C@@H](CC(C)C)C(=O)N2C[C@H](O)C[C@H]2C(=O)N[C@@H](Cc2c[nH]c3ccccc23)C(=O)N[C@@H](CCN)C(=O)N[C@@H](Cc2cn(CC(=O)O)c3ccccc23)C(=O)N1C` [Example 2011] ({CH2CO}-Y[NMeA]NP[X29]L[Hyp]W[Dab][Trp(1-CH2COOH)][NMeNle][NMeNle]LCG-NH2; thioether N-14): 8.8 nM.
In turn, `CCCC[C@H]1C(=O)N(C)[C@@H](CCCC)C(=O)N[C@@H](CC(C)C)C(=O)N[C@H](C(=O)NCC(N)=O)CSCC(=O)N[C@@H](Cc2ccc(O)cc2)C(=O)N(C)[C@@H](C)C(=O)N[C@@H](CC(N)=O)C(=O)N2CCC[C@H]2C(=O)N[C@@H](CNC[C@@H](O)[C@H](O)[C@H](O)CO)C(=O)N[C@@H](CC(C)C)C(=O)N2C[C@H](O)C[C@H]2C(=O)N[C@@H](Cc2c[nH]c3ccccc23)C(=O)N[C@@H](CCNC[C@@H](O)[C@H](O)[C@H](O)CO)C(=O)N[C@@H](Cc2cn(CC(=O)O)c3ccccc23)C(=O)N1C` [Example 2012] ({CH2CO}-Y[NMeA]NP[X67]L[Hyp]W[X68][Trp(1-CH2COOH)][NMeNle][NMeNle]LCG-NH2; thioether N-14) had an IC50 of 0.7 nM.
In the case of `CCCC[C@H]1C(=O)N(C)[C@@H](CCCC)C(=O)N[C@@H](CC(C)C)C(=O)N[C@H](C(=O)NCC(N)=O)CSCC(=O)N[C@@H](Cc2ccc(O)cc2)C(=O)N(C)[C@@H](C)C(=O)N[C@@H](CC(N)=O)C(=O)N2CCC[C@H]2C(=O)N[C@@H](CNC[C@H](O)[C@@H](O)[C@H](O[C@@H]2O[C@H](CO)[C@H](O)[C@H](O)[C@H]2O)[C@H](O)CO)C(=O)N[C@@H](CC(C)C)C(=O)N2C[C@H](O)C[C@H]2C(=O)N[C@@H](Cc2c[nH]c3ccccc23)C(=O)N[C@@H](CCN)C(=O)N[C@@H](Cc2cn(CC(=O)O)c3ccccc23)C(=O)N1C` [Example 2013] ({CH2CO}-Y[NMeA]NP[X27]L[Hyp]W[Dab][Trp(1-CH2COOH)][NMeNle][NMeNle]LCG-NH2; thioether N-14), the IC50 amounted to 9.7 nM.
In the case of `CCCC[C@H]1C(=O)N(C)[C@@H](CCCC)C(=O)N[C@@H](CC(C)C)C(=O)N[C@H](C(=O)NCC(N)=O)CSCC(=O)N[C@@H](Cc2ccc(O)cc2)C(=O)N(C)[C@@H](C)C(=O)N[C@@H](CC(N)=O)C(=O)N2CCC[C@H]2C(=O)N[C@@H](CNC[C@H](O)[C@@H](O)[C@H](O)CO)C(=O)N[C@@H](CC(C)C)C(=O)N2C[C@H](O)C[C@H]2C(=O)N[C@@H](Cc2c[nH]c3ccccc23)C(=O)N[C@@H](CCNC[C@H](O)[C@@H](O)[C@H](O)CO)C(=O)N[C@@H](Cc2cn(CC(=O)O)c3ccccc23)C(=O)N1C` [Example 2014] ({CH2CO}-Y[NMeA]NP[X5]L[Hyp]W[X6][Trp(1-CH2COOH)][NMeNle][NMeNle]LCG-NH2; thioether N-14), the IC50 amounted to 2.5 nM.
As to `CCCC[C@H]1C(=O)N(C)[C@@H](CCCC)C(=O)N[C@@H](CC(C)C)C(=O)N[C@H](C(=O)NCC(N)=O)CSCC(=O)N[C@@H](Cc2ccc(O)cc2)C(=O)N(C)[C@@H](C)C(=O)N[C@@H](CC(N)=O)C(=O)N2CCC[C@H]2C(=O)N[C@@H](CNC[C@H](O)[C@@H](O)[C@H](O)[C@H](O)CO)C(=O)N[C@@H](CC(C)C)C(=O)N2C[C@H](O)C[C@H]2C(=O)N[C@@H](Cc2c[nH]c3ccccc23)C(=O)N[C@@H](CCN)C(=O)N[C@@H](Cc2cn(CC(=O)O)c3ccccc23)C(=O)N1C` [Example 2015] ({CH2CO}-Y[NMeA]NP[X58]L[Hyp]W[Dab][Trp(1-CH2COOH)][NMeNle][NMeNle]LCG-NH2; thioether N-14), the IC50 was 1.8 nM.

By IC50 is commonly meant the concentration that gives 50% inhibition. Read a low IC50 as greater potency.

The record behind these values is patent US20230242585A1, “IMMUNOMODULATORS” (Bristol-Myers Squibb Company, priority 2020, published 2023).
